Laboratory results: patent US7196110B2, “N-substituted tricyclic 3-aminopyrazoles as inhibitors for the treatment of cell proliferative disorders” (Janssen Phamaceutica N.V., priority 2002, dated 2007)
Where two headings read alike, the source gives them in different places.

Molecular target: T1, PDGF-receptor beta enzyme comprising the tyrosine kinase domain (Homo sapiens, UniProt P09619)
T1 construct: from amino acid 545 to 1106 of GenBank Access NO: AAA36427
Test: Inhibition of PDGF-receptor kinase activity (cell-free, PLC1 peptide, 33P Flashplate)
Format: biochemical
Details: for inhibition at 10 µM: read-out: Percent Inhibition @ 10 uM
Method in brief: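 Recombinant kinase domain (aa 545–1106) phosphorylated a biotinylated PLC1 peptide with 5 μM ATP plus 33P-γ-ATP, in Tris pH 8, MgCl2, Na3VO4 and 1 mM DTT, for 60 min at 30 °C. Retained 33P was counted after washing. IC50 is the concentration halving activity versus no-inhibitor reactions.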

[1] = PDGF-R kinase activity, compound at 10 uM
[2] = PDGF-R kinase activity, read-out: IC50
[3] = read-out: IC50 (μM) on PDGF-R kinase activity

T1 sequence (P09619 545-1106): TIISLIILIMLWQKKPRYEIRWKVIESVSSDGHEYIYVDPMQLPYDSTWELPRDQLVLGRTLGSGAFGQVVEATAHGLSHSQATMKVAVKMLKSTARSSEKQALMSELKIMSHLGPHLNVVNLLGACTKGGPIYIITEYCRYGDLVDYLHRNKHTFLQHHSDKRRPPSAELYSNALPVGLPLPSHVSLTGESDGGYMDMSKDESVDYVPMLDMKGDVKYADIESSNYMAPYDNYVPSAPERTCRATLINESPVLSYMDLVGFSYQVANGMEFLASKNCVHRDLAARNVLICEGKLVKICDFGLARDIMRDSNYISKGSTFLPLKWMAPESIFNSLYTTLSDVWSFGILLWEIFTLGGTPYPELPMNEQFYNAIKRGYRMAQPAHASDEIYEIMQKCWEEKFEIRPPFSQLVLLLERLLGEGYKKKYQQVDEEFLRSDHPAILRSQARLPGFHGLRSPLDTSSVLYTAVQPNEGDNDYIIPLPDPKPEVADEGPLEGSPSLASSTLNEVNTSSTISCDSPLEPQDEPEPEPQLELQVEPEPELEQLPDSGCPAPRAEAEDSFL

SMILES	inhibition at 10 µM [1] [%]	IC50 [2] [µM]	IC50 [3] [µM]	Percent Inhibition @ 10 uM (PDGF-R kinase activity, compound at 10 uM, 10 µM) [%]
COc1cc2c(cc1OCC(O)CO)Cc1c-2n[nH]c1NCc1ccccc1Cl (stereo not drawn) [Compound 451, 3-[3-(2-Chloro-benzylamino)-7-methoxy-2,4-dihydro-indeno[1,2-c]pyrazol-6-yloxy]-propane-1,2-diol]	99.5	0.002	–	–
CCOc1cccc(Nc2[nH]nc3c2C(CC)c2cc(OC)c(OC)cc2-3)c1 (stereo not drawn) [Compound 505, (3-Ethoxy-phenyl)-(4-ethyl-6,7-dimethoxy-2,4-dihydro-indeno[1,2-c]pyrazol-3-yl)-amine]	97	0.134	–	–
COc1cc2c(cc1OCc1ccccc1)-c1n[nH]c(Nc3cccc(F)c3)c1C2 [Compound 549, (7-Benzyloxy-6-methoxy-2,4-dihydro-indeno[1,2-c]pyrazol-3-yl)-(3-fluoro-phenyl)-amine]	106	0.0911	–	–
CN(C)c1ccc(Nc2[nH]nc3c2Cc2cc(Cl)ccc2-3)cc1 [Compound 196, N-(6-Chloro-2,4-dihydro-indeno[1,2-c]pyrazol-3-yl)-N′,N′-dimethyl-benzene-1,4-diamine]	70	1.29	–	–
COc1ccc2c(c1)Cc1c-2n[nH]c1Nc1cc(OC)ccc1OC [Compound 85, (2,5-Dimethoxy-phenyl)-(6-methoxy-2,4-dihydro-indeno[1,2-c]pyrazol-3-yl)-amine]	61	5.82	–	–
COc1cc2c(cc1OCCCN1CCN(C)CC1)Cc1c-2n[nH]c1Nc1cccc(Cl)c1 [Compound 213, (3-Chloro-phenyl)-{7-methoxy-6-[3-(4-methyl-piperazin-1-yl)-propoxy]-2,4-dihydro-indeno[1,2-c]pyrazol-3-yl}-amine]	82	0.0027	–	–
CCOc1cc2c(cc1OCC)-c1n[nH]c(NCc3ccccc3OC(F)(F)F)c1C2 [Compound 301, (6,7-Diethoxy-2,4-dihydro-indeno[1,2-c]pyrazol-3-yl)-(2-trifluoromethoxy-benzyl)-amine]	72	–	–	–
COc1cc2c(cc1OC)-c1n[nH]c(Nc3cnccc3C(F)(F)F)c1C2 [Compound 577, (6,7-Dimethoxy-2,4-dihydro-indeno[1,2-c]pyrazol-3-yl)-(4-trifluoromethyl-pyridin-3-yl)-amine]	19	–	362	–
CCOc1cccc(Nc2[nH]nc3c2C(C)c2cc(OC)c(OC)cc2-3)c1 (single isomer, unassigned) [Compound 554, (6,7-Dimethoxy-4-methyl-2,4-dihydro-indeno[1,2-c]pyrazol-3-yl)-(3-ethoxy-phenyl)-amine]	–	0.0208	–	102
COc1cc2c(cc1OC)-c1c(c(Nc3cccc(F)c3)nn1CC(N)=O)C2 [Compound 534, 2-[3-(3-Fluoro-phenylamino)-6,7-dimethoxy-4H-indeno[1,2-c]pyrazol-1-yl]-acetamide]	94	0.933	–	–
COc1cc2c(cc1OC)-c1c(c(Nc3cccc(F)c3)nn1CCO)C2 [Compound 572, 2-[3-(3-Fluoro-phenylamino)-6,7-dimethoxy-4H-indeno[1,2-c]pyrazol-1-yl]-ethanol]	67	–	7.33	–
CN(C)CCCOc1ccc2c(c1)Cc1c-2n[nH]c1Nc1cccc(C(F)(F)F)c1 [Compound 165, [6-(3-Dimethylamino-propoxy)-2,4-dihydro-indeno[1,2-c]pyrazol-3-yl]-(3-trifluoromethyl-phenyl)-amine]	92.5	0.101	–	–
FC(F)(F)c1cc(Nc2[nH]nc3c2Cc2cc(Cl)ccc2-3)cc(C(F)(F)F)c1 [Compound 195, (3,5-Bis-trifluoromethyl-phenyl)-(6-chloro-2,4-dihydro-indeno[1,2-c]pyrazol-3-yl)-amine]	76	2.28	–	–
CCOC(=O)c1cccc(Nc2[nH]nc3c2Cc2cc(OC)c(OC)cc2-3)c1 [Compound 210, 3-(6,7-Dimethoxy-2,4-dihydro-indeno[1,2-c]pyrazol-3-ylamino)-benzoic acid ethyl ester]	90	0.0672	–	–
COc1cc2c(cc1OC)-c1n[nH]c(NCc3ccc(C)c(C)c3)c1C2 [Compound 320, (6,7-Dimethoxy-2,4-dihydro-indeno[1,2-c]pyrazol-3-yl)-(3,4-dimethyl-benzyl)-amine]	70.5	1.96	–	–
CC1c2ccccc2-c2n[nH]c(Nc3cccc(C(F)(F)F)c3)c21 (stereo not drawn) [Compound 114, (4-Methyl-2,4-dihydro-indeno[1,2-c]pyrazol-3-yl)-(3-trifluoromethyl-phenyl)-amine]	80	1.37	–	–
COc1cc2c(cc1OC)-c1c(c(Nc3cccc(F)c3)nn1C(=O)OCCOCc1ccccc1)C2 [Compound 470, 3-(3-Fluoro-phenylamino)-6,7-dimethoxy-4H-indeno[1,2-c]pyrazole-1-carboxylic acid 2-benzyloxy-ethyl ester]	96	0.197	–	–

SMILES	inhibition at 10 µM [1] [%]	IC50 [2] [µM]	IC50 [3] [µM]	Percent Inhibition @ 10 uM (PDGF-R kinase activity, compound at 10 uM, 10 µM) [%]
COc1cc2c(cc1OC)-c1nn(C(=O)NCCOCCOCCO)c(Nc3cccc(F)c3)c1C2 [Compound 604, 3-(3-Fluoro-phenylamino)-6,7-dimethoxy-4H-indeno[1,2-c]pyrazole-2-carboxylic acid {2-[2-(2-hydroxy-ethoxy)-ethoxy]-ethyl}-amide]	79.5	–	2.13	–
COC(=O)c1cccc(Nc2[nH]nc3c2Cc2cc(N)ccc2-3)c1 [Compound 120, 3-(6-Amino-2,4-dihydro-indeno[1,2-c]pyrazol-3-ylamino)-benzoic acid methyl ester]	87	0.308	–	–
COc1cc2c(cc1OC)-c1c(c(Nc3cccc(F)c3)nn1C(=O)CC(=O)N1CCCC1)C2 [Compound 536, 1-[3-(3-Fluoro-phenylamino)-6,7-dimethoxy-4H-indeno[1,2-c]pyrazol-1-yl]-3-pyrrolidin-1-yl-propane-1,3-dione]	88	0.436	–	–
COc1cc2c(cc1OC)C(C)c1c-2n[nH]c1Nc1cccnc1Cl (single isomer, unassigned) [Compound 559, (2-Chloro-pyridin-3-yl)-(6,7-dimethoxy-4-methyl-2,4-dihydro-indeno[1,2-c]pyrazol-3-yl)-amine]	102	0.0371	–	–
Oc1cc2c(cc1O)-c1n[nH]c(Nc3cccc(F)c3)c1C2 [Compound 362, 3-(3-Fluoro-phenylamino)-2,4-dihydro-indeno[1,2-c]pyrazole-6,7-diol]	80.5	0.784	–	–
COC(=O)c1cccc(Nc2[nH]nc3c2Cc2c(OCCCN(C)C)cccc2-3)c1 [Compound 77, 3-[5-(3-Dimethylamino-propoxy)-2,4-dihydro-indeno[1,2-c]pyrazol-3-ylamino]-benzoic acid methyl ester]	108	0.217	–	–
COc1ccc(OC)c(Nc2[nH]nc3c2Cc2c(OC)cccc2-3)c1 [Compound 147, (2,5-Dimethoxy-phenyl)-(5-methoxy-2,4-dihydro-indeno[1,2-c]pyrazol-3-yl)-amine]	32	2.98	–	–
Cc1cccc2c1Cc1c-2n[nH]c1Nc1ccc(F)cc1 [Compound 98, (4-Fluoro-phenyl)-(5-methyl-2,4-dihydro-indeno[1,2-c]pyrazol-3-yl)-amine]	26	30.7	–	–
COc1cc2c(cc1OC)-c1nn(Cc3ccc(OC(C)=O)cc3)c(Nc3cccc(F)c3)c1C2 [Compound 499, Acetic acid 4-[3-(3-fluoro-phenylamino)-6,7-dimethoxy-4H-indeno[1,2-c]pyrazol-2-ylmethyl]-phenyl ester]	87	1.74	–	–
COc1ccc(OC)c(CNc2[nH]nc3c2Cc2ccc(C)cc2-3)c1 [Compound 316, (2,5-Dimethoxy-benzyl)-(7-methyl-2,4-dihydro-indeno[1,2-c]pyrazol-3-yl)-amine]	66	4.91	–	–
Fc1ccc2c(c1)Cc1c-2n[nH]c1NCc1ccc(F)c(F)c1 [Compound 308, (3,4-Difluoro-benzyl)-(6-fluoro-2,4-dihydro-indeno[1,2-c]pyrazol-3-yl)-amine]	14	0.511	–	–
COc1cc2c(cc1OC)-c1c(c(Nc3cccc(F)c3)nn1C(=O)c1ccc(F)cc1)C2 [Compound 492, (4-Fluoro-phenyl)-[3-(3-fluoro-phenylamino)-6,7-dimethoxy-4H-indenol[1,2-c]pyrazol-1-yl]-methanone]	78	0.472	–	–
COc1ccc(OC)c(Nc2[nH]nc3c2Cc2cc(OCCCN(C)C)ccc2-3)c1 [Compound 162, (2,5-Dimethoxy-phenyl)-[6-(3-dimethylamino-propoxy)-2,4-dihydro-indeno[1,2-c]pyrazol-3-yl]-amine]	21.5	54.9	–	–
COc1cc2c(cc1OC)-c1n[nH]c(Nc3cc(C)cc(C)n3)c1C2 [Compound 588, (6,7-Dimethoxy-2,4-dihydro-indeno[1,2-c]pyrazol-3-yl)-(4,6-dimethyl-pyridin-2-yl)-amine]	103	–	0.556	–
C=C(C)C(=O)OCCNC(=O)n1nc2c(c1Nc1cccc(F)c1)Cc1cc(OC)c(OC)cc1-2 [Compound 528, 2-Methyl-acrylic acid 2-{[3-(3-fluoro-phenylamino)-6,7-dimethoxy-4H-indeno[1,2-c]pyrazole-2-carbonyl]-amino}-ethyl ester]	93.5	0.196	–	–
Cc1cccc2c1Cc1c-2n[nH]c1Nc1cc(F)ccc1F [Compound 103, (2,5-Difluoro-phenyl)-(5-methyl-2,4-dihydro-indeno[1,2-c]pyrazol-3-yl)-amine]	43	4.1	–	–
Cc1ccc2c(c1)-c1n[nH]c(Nc3cccc(C(F)(F)F)c3)c1C2 [Compound 187, (7-Methyl-2,4-dihydro-indeno[1,2-c]pyrazol-3-yl)-(3-trifluoromethyl-phenyl)-amine]	35	–	–	–
